Data as given in US20130330358A1, “CRYSTAL STRUCTURE AND PEPTIDE INHIBITORS OF HAUSP DEUBIQUITINASE” (priority 2011, published 2013).

Assays:
[1] = molecular target: T1, HAUSP TRAF domain HAUSP^62-205 (Homo sapiens, UniProt Q93009); assay: biochemical; type: binding; conditions: ITC, 20° C.; read-out: Kd
T1 construct: HAUSP^62-205, and HAUSP^62-560 were fused to a hexahistidine-tag2 and expressed in E. coli BL21 (DE3) RIPL cells; hexahistidine (cleaved yes); made in house; host or cells: E. coli BL21 (DE3) RIPL
Method: FIG. 5. Typical isothermal titration calorimetric measurements of the interactions between the HAUSP TRAF domain and the vIRF4 protein derivatives or other peptides. Purified proteins and synthesized peptides were reconstituted in 150 mM NaCl and 10 mM HEPES (pH 7.0). The calorimetric assays were performed using a VPITC system. All experiments were carried out with a stirring speed of 300 rpm at 20° C., and the thermal power was recorded every 10 s. Data were analyzed using the ORIGIN software package (version 7.0). […] Each titration against the HAUSP TRAF domain is indicated in each panel.
Purified proteins and synthesized peptides (Peptron Inc., Deajeon, Korea) were reconstituted in 150 mM NaCl and 10 mM HEPES (pH 7.0). The calorimetric assays were performed using a VP-ITC system (MicroCal Inc., Northampton, Mass.). Samples were degassed by vacuum aspiration for 15 min prior to loading. All experiments were carried out with a stirring speed of 300 rpm at 20° C., and the thermal power was recorded every 10 s. Data were analyzed using the ORIGIN software package (version 7.0) supplied with the instrument. […]

HAUSP [2] = molecular target: T2, HAUSP (Homo sapiens, UniProt Q93009); assay: In vitro DUB assay, purified HAUSP with ubiquitinated MDM2 as substrate; conditions: HAUSP preincubated with increasing amounts of peptide (FIG. 2f)
HAUSP [3] = molecular target: T2, HAUSP; conditions: time course, K48-Ub3-7 chains, 37° C. (FIG. 2e)
[4] = molecular target: T1, HAUSP TRAF domain HAUSP^62-205; assay: Size exclusion chromatography, complex formation in 5-fold excess of MDM2^137-152; type: binding; conditions: in the presence of a 5-fold molar excess of MDM2 peptide
USP8 = molecular target: T3, USP8 (Homo sapiens, UniProt P40818); type: biochemical; conditions: 0.25 μM purified USP8 pre-mixed with peptide 5 min
T3 sequence (P40818 1-1118): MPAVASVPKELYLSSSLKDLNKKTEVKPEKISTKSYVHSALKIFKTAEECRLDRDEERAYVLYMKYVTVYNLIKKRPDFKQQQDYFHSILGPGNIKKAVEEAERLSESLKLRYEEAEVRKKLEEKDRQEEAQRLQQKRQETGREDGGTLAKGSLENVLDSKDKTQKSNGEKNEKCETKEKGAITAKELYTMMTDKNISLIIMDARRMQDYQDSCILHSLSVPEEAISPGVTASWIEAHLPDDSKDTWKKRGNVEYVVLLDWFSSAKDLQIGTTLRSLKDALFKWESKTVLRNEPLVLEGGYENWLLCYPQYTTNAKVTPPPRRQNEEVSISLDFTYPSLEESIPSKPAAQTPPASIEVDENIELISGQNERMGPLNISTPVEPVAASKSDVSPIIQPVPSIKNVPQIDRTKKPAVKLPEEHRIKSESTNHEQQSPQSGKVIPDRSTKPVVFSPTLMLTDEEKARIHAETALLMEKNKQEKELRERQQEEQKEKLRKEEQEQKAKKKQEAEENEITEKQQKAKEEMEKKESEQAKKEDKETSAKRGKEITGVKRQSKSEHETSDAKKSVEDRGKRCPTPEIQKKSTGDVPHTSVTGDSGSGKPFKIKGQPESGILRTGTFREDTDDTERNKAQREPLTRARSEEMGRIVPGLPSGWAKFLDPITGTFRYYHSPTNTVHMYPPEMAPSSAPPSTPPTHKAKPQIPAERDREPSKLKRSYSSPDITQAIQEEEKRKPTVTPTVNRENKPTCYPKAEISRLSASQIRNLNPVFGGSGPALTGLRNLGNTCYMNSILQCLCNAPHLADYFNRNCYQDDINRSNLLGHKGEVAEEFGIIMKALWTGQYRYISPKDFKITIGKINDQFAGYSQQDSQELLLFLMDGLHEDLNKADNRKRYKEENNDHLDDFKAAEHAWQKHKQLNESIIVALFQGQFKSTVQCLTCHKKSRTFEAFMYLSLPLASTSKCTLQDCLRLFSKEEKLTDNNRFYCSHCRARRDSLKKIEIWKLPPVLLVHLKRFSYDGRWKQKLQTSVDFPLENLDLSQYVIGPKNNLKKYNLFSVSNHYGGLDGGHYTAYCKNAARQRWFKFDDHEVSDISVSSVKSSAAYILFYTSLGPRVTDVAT

[5] = test system: p53 and its transcriptional targets p21 and MDM2; assay: Immunoblot of p53, MDM2, p21 and HAUSP levels in PEL cells; type: cell-based, human; conditions: FIG. 3d
Text: The results were quantified as mean±s.d. of the combined results from three independent experiments; Data are mean±s. e. m.; n=200-300 cells from three independent experiments. *P<0.01 and **P<0.001. A Beckman Coulter Z2 Particle Count and size analyzer (BC Z2 CS analyzer) and trypan blue staining were used to determine cell death and for cell growth analysis. […] BrdU incorporation during the S phase is quantified as percentage of stained cells. […] Data are culled from 3 independent experiments. […] Apoptosis in VG1 cells was assessed at 48 h after treatment with 10 μM Nutlin-3a or 100 μM of each peptide by Annexin V/PI staining and measured by flow cytometry analysis. […] Numbers indicate the percentage of cells in each quadrant. […] VG1 and BJAB cells were treated with the same dose as used in (b) and (c) for 6 h and aliquots of cell lysates containing […] of protein were analyzed by IB with the indicated antibody. […] Tumors were measured by in vivo bioluminescence imaging. […] The results were quantified as mean±s.d. of the combined results from three independent experiments; Data are mean±s. e. m.; n=200-300 cells from three independent experiments. *P<0.05 and **P<0.01. […]

[6] = test system: MCF7 (MDMX amplification); assay: WST-1 cell growth assay, MCF7; type: cell-based, human; conditions: MCF7, 100 μM, compared with LnCap cells
[7] = test system: SJSA-1 (MDM2 amplification); assay: WST-1 cell growth assay, SJSA-1; type: cell-based, human; conditions: SJSA-1, 100 μM, compared with LnCap cells

T2 sequence (Q93009 whole entry): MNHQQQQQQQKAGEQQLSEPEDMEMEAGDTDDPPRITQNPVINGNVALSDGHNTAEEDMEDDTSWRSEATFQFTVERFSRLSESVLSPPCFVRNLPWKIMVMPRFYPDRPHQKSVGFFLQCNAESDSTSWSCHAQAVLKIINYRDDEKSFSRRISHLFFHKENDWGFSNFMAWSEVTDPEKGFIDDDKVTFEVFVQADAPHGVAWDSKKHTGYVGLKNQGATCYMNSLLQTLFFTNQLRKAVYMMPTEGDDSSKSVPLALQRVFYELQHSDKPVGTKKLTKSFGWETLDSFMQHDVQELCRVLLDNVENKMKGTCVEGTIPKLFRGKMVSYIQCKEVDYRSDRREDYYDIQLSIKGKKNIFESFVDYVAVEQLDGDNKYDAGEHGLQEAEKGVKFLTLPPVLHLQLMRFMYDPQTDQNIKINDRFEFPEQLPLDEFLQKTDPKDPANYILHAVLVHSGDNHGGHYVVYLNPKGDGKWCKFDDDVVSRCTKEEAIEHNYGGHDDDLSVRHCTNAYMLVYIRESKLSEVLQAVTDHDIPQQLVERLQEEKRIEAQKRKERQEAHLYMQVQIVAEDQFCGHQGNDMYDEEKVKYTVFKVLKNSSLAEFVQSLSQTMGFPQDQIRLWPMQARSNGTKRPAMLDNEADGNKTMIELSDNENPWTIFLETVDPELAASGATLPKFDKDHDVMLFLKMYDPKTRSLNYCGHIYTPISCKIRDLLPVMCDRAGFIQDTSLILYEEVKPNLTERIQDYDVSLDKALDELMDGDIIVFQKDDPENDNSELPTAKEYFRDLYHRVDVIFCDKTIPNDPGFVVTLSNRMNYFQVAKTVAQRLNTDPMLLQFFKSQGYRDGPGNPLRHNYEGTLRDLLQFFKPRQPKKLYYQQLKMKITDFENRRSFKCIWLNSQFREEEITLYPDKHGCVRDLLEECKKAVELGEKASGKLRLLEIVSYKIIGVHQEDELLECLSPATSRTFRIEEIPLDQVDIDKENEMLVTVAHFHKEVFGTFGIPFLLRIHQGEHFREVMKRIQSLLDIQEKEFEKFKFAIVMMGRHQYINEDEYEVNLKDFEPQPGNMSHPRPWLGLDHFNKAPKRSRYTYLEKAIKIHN
T1 sequence (Q93009 62-205): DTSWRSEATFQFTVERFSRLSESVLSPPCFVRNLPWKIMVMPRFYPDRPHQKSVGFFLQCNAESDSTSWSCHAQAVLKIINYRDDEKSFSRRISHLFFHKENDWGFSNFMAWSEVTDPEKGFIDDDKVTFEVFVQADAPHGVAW

C[C@H](NC(=O)[C@@H]1CCCN1C(=O)CNC(=O)[C@H](CCC(N)=O)NC(=O)[C@@H](N)CCC(=O)O)C(=O)N[C@@H](CC(=O)O)C(=O)N[C@@H](CC(=O)O)C(=O)N1CCC[C@H]1C(=O)NCC(=O)N[C@@H](CCC(=O)O)C(=O)NCC(=O)N1CCC[C@H]1C(=O)N[C@@H](CO)C(=O)N[C@H](C(=O)NCC(=O)O)[C@@H](C)O [EBNA1^435-449, reference compound]
Kd [1]: 480 ± 40 nM

CC[C@H](C)[C@H](NC(=O)[C@H](Cc1c[nH]c2ccccc12)NC(=O)[C@@H](NC(=O)[C@@H](N)CO)C(C)C)C(=O)N1CCC[C@H]1C(=O)N[C@H](C(=O)N[C@@H](CC(N)=O)C(=O)N[C@@H](CCC(=O)O)C(=O)NCC(=O)N[C@@H](C)C(=O)N[C@@H](CO)C(=O)N[C@H](C(=O)N[C@@H](CO)C(=O)NCC(=O)N[C@@H](CCSC)C(=O)O)[C@@H](C)O)C(C)C [vIRF4^202-216]
HAUSP DUB activity against ubiquitinated MDM2 (HAUSP [2]): efficiently blocked HAUSP DUB activity | HAUSP DUB activity, comparative kinetic analysis (HAUSP [3]): weakly attenuated HAUSP DUB activity | complex formation with the HAUSP TRAF domain [4]: formed a stable complex | USP8 DUB activity (USP8): neither vif1 peptide nor vif2 peptide was capable of inhibiting USP8 DUB activity | HAUSP levels [5]: Neither vif1 nor vif2 peptide treatment altered HAUSP levels | cell growth inhibition [6]: did not show as robust a susceptibility | cell growth inhibition [7]: did not show as robust a susceptibility

TRQVTQASSFTWRVPG [vif2]
HAUSP DUB activity against ubiquitinated MDM2 (HAUSP [2]): efficiently blocked HAUSP enzymatic activity | HAUSP DUB activity, comparative kinetic analysis (HAUSP [3]): completely suppressed HAUSP DUB activity | USP8 DUB activity (USP8): neither vif1 peptide nor vif2 peptide was capable of inhibiting USP8 DUB activity | HAUSP levels [5]: Neither vif1 nor vif2 peptide treatment altered HAUSP levels | cell growth inhibition [6]: did not show as robust a susceptibility | cell growth inhibition [7]: did not show as robust a susceptibility
